Test results as given in PubChem BioAssay (NCI).
Where “and” joins values, the source holds several entries; their conditions need not be identical. Identical values can stand only once.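 96-well plates; 48 h exposure; 5 concentrations. Endpoints by linear interpolation between flanking doses. Not reached: highest tested concentration assigned. GI50 is the concentration that inhibits growth by half. Definition used: TGI = concentration required for complete inhibition of growth.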 *1 amine or outer side, *2 acyl side, *3 side chain or, on linkers, in order; H or OH if unused. Where a SMILES comes first, the peptide text is derived from it. Bridges are numbered along the chain shown (N, C = ends). [ ]: non-standard residue; d: D form. ξ: configuration not given here. X4 = CCC(C)C(N[*:1])C(O)CC(=O)O[C@H](C(=O)C(C)C(=O)[*:2])C(C)C; NMeY = CN[C@@H](Cc1ccc(O)cc1)C(=O)O; X9 = O=C([C@@H]1CC(O)CN1[*:1])[*:2]; ξNMeL = CNC(CC(C)C)C(=O)O; ξT = CC(O)C(N)C(=O)O

Experiments:
Experiment in all cases: growth of human tumour cells (NCI), 48 h
[1] = system: MOLT-4 leukemia
[2] = system: SK-MEL-5 melanoma
[3] = system: UACC-257 melanoma
[4] = system: HOP-62 NSCLC
[5] = system: OVCAR-3 ovarian
[6] = system: IGROV1 ovarian
[7] = system: 786-0 renal
[8] = system: DU-145 prostate
[9] = system: HOP-92 NSCLC
[10] = system: SW-620 colon

SMILES	TGI [1]	TGI [2]	TGI [3]	TGI [4]	GI50 [5]	TGI [5]	TGI [6]	GI50 [7]	TGI [7]	GI50 [8]	TGI [8]	TGI [9]	TGI [10]	GI50 [1]	GI50 [2]	GI50 [3]	GI50 [4]	GI50 [6]	GI50 [9] [µM]	GI50 [10]
CCC(C)C1NC(=O)C(NC(=O)C(CC(C)C)N(C)C(=O)[C@@H]2CC(O)CN2)C(C)OC(=O)[C@H](Cc2ccc(OC)cc2)N(C)C(=O)[C@@H]2CCCN2C(=O)[C@H](CC(C)C)NC(=O)C(C)C(=O)[C@H](C(C)C)OC(=O)CC1O (stereo not given in full) (H-[X9][ξNMeL][ξT][X4]LP[NMeY](Me); ester 3-C)	0.0426 µM and 0.0387 µM	0.101 µM and 0.0147 µM	0.185 µM and 0.608 µM	0.154 µM	0.0166 µM	0.11 µM and 0.295 µM	0.107 µM and 0.141 µM	0.0162 µM	0.149 µM and 1.25 µM	0.0149 µM	0.398 µM and 0.55 µM	0.242 µM and 0.0658 µM	0.287 µM and 0.294 µM	–	–	–	–	–	–	–
COc1nccc(-c2c(-c3ccc(F)cc3)ncn2C2CCC(O)CC2)n1 (stereo not given)	> 100 µM	> 100 µM	> 100 µM	> 100 µM	> 82 µM	> 100 µM	> 100 µM	> 100 µM	> 100 µM	72.8 µM	> 100 µM	> 100 µM	> 100 µM	> 95.3 µM	43.1 µM	> 100 µM	99 µM	22.2 µM	> 100	> 70.8 µM
S=C(Nc1ccccc1)c1ccccn1	> 100 µM	> 100 µM	> 100 µM	> 100 µM	31.6 µM	> 100 µM	> 100 µM	> 100 µM	> 100 µM	53 µM	> 100 µM	> 100 µM	> 100 µM	42.1 µM	69.2 µM	> 100 µM	81.9 µM	42.4 µM	54.3	59.4 µM
CCN(CC)c1ccc(/C=N/NC(=O)c2ccc(Nc3ccnc(C(F)(F)F)c3)cc2)c(O)c1	1.38 µM	1.71 µM	> 31 µM	1.07 µM	0.109 µM	> 70.1 µM	–	0.188 µM	0.447 µM	0.362 µM	> 46.9 µM	> 100 µM	> 64.7 µM	0.117 µM	0.412 µM	0.412 µM	0.187 µM	0.158 µM	1.05	0.404 µM
COC(=O)C1=CN(CC2=CC(=O)C(C)=CC2=O)C=C(C(=O)OC)C1c1cccc(OC)c1OC	9.68 µM	32.6 µM	43.5 µM	> 48.1 µM	8.19 µM	24 µM	47.3 µM	7.56 µM	25.3 µM	17.4 µM	33.1 µM	17.1 µM	> 70.6 µM	3.28 µM	15.2 µM	18.5 µM	15.8 µM	17.4 µM	2.68	19.4 µM
O=c1cc/c(=N\Nc2ccccc2)c(=O)/c1=N/Nc1ccccc1	> 50 µM	> 50 µM	> 50 µM	> 50 µM	> 50 µM	> 50 µM	> 50 µM	> 50 µM	> 50 µM	> 50 µM	> 50 µM	> 50 µM	> 50 µM	> 50 µM	> 50 µM	> 50 µM	> 50 µM	> 50 µM	> 50	> 50 µM
O=C1C(NCCO)=C(N2CC2)C(=O)C(NCCO)=C1N1CC1	58.5 µM	> 85.5 µM	> 100 µM	66.7 µM	–	> 75.8 µM	> 100 µM	–	> 60.9 µM	–	> 100 µM	> 100 µM	> 83.3 µM	–	–	–	–	–	–	–
O=C(Nc1ccccc1Cl)c1cnc2ccc(C3CCNCC3)cn12	> 100 µM	26.6 µM	37.1 µM	> 100 µM	5.6 µM	> 100 µM	14.6 µM	3.18 µM	> 100 µM	6.62 µM	> 100 µM	7.28 µM	> 100 µM	55.9 µM	13 µM	16.2 µM	16.8 µM	0.626 µM	0.703	> 100 µM
FC(F)(F)c1ccc2c(c1)N(CCCN1CCN(C3CC3)CC1)c1ccccc1S2	23.7 µM	14.4 µM	19 µM	27.8 µM	7.11 µM	20.3 µM	28.3 µM	15.4 µM	30.3 µM	13.8 µM	28.6 µM	28.1 µM	18.1 µM	6.13 µM	4.08 µM	5.57 µM	14.4 µM	11.6 µM	13.9	4.42 µM
Cc1cccc2c3c(sc12)C(c1ccc(Cl)cc1)C(C#N)=C(/N=C/c1ccc(Cl)cc1)O3 (stereo not given)	> 100 µM	> 100 µM	> 100 µM	36.5 µM	0.393 µM	6.81 µM	> 100 µM	0.653 µM	27.8 µM	0.485 µM	> 100 µM	36.7 µM	> 100 µM	0.517 µM	0.47 µM	> 100 µM	0.573 µM	0.413 µM	6.04	0.434 µM
COc1ccc(C2=NNC(c3ccc(-c4ccc(OC)cc4[N+](=O)[O-])o3)C2)cc1 (stereo not given)	> 100 µM	> 100 µM	> 100 µM	> 100 µM	21 µM	62.2 µM	> 100 µM	48.8 µM	> 100 µM	36.3 µM	> 100 µM	81 µM	> 100 µM	31 µM	72.7 µM	38.4 µM	30.6 µM	59.9 µM	15.1	78.2 µM
O=C(O)CC(Cc1ccc2c(c1)OCO2)C(=O)O (stereo not given)	> 100 µM	> 100 µM	> 100 µM	> 100 µM	–	> 100 µM	> 100 µM	–	> 100 µM	–	> 100 µM	> 100 µM	> 100 µM	–	–	–	–	–	–	–
CC(C)(C)Cn1c(N)nc2ccc(-c3[nH]c(C(C)(C)C)nc3-c3ccc(F)cc3)nc21	36.9 µM	23 µM	23.9 µM	29 µM	9.47 µM	23.7 µM	16.4 µM	9.75 µM	25.9 µM	10.6 µM	23.5 µM	26.3 µM	30.1 µM	7.7 µM	11 µM	11.2 µM	14.2 µM	2.66 µM	3.41	13.6 µM
COc1cc(N2CCC(N(C)C)CC2)ccc1Nc1ncc(Cl)c(Nc2ccccc2P(C)(C)=O)n1	> 100 µM	17 µM and > 6.71 µM	30 µM and > 8.47 µM	4.72 µM and > 10 µM	1.73 µM and 0.728 µM	11.3 µM and 7.01 µM	> 100 µM	1.12 µM and 0.483 µM	10 µM and > 6.3 µM	0.972 µM and 0.545 µM	> 25.2 µM and 3.8 µM	0.918 µM	> 26.5 µM and 6.65 µM	4.05 µM and 1.16 µM	4.34 µM and 2.72 µM	4.01 µM and 0.61 µM	0.384 µM and 0.232 µM	0.687 µM and 0.181 µM	0.0882	1.33 µM and 0.213 µM
CC1CCC2(OC1)OC1CC3C4CC=C5CC(OC6OC(CO)C(OC7OC(C)C(OC8OC(C)C(O)C(O)C8O)C(O)C7O)C(O)C6OC6OC(C)C(O)C(O)C6O)CCC5(C)C4CCC3(C)C1C2C (stereo not given)	0.958 µM	3.06 µM	2.02 µM	> 100 µM	–	3.31 µM	2.59 µM	–	2.29 µM	–	2.54 µM	1.9 µM	2.89 µM	–	–	–	–	–	–	–
CC1(C)OC2C(CO)OC(n3ccc(=O)[nH]c3=O)C2O1 (stereo not given)	> 100 µM	> 100 µM	> 100 µM	> 100 µM	–	> 100 µM	> 100 µM	–	> 100 µM	–	> 100 µM	> 100 µM	> 100 µM	–	–	–	–	–	–	–
O=[N+]([O-])c1cccc(-c2nc3sccn3c2-c2ccnc(NCCCNS(=O)(=O)c3ccc(F)cc3)n2)c1	5.52 µM	2.45 µM	7.96 µM	9.61 µM	2.31 µM	8.49 µM	26.8 µM	7.39 µM	> 100 µM	2.65 µM	12.9 µM	> 100 µM	> 100 µM	1.23 µM	1.06 µM	2.54 µM	3.16 µM	2.9 µM	1.74	3.95 µM
COc1cc2c(/C=C3/C(=O)Nc4ccccc43)c(Cl)n(Cc3ccccc3)c2cc1C	> 100 µM	> 100 µM	> 100 µM	> 100 µM	> 100 µM	> 100 µM	> 100 µM	> 100 µM	> 100 µM	> 100 µM	> 100 µM	> 100 µM	> 100 µM	6.05 µM	42.2 µM	> 100 µM	> 100 µM	> 100 µM	> 100	> 100 µM
COc1cc2c(cc1OCCCCCOc1cc(-c3ccc(F)cc3)nc(C)n1)N=C[C@@H]1CCCN1C2=O	> 45 µM	> 26.2 µM	> 100 µM	> 79.4 µM	> 38.2 µM	> 58.3 µM	> 49.6 µM	> 44.9 µM	> 67.5 µM	> 39.8 µM	> 87.4 µM	6.7 µM	> 87.1 µM	–	–	> 100 µM	> 50.2 µM	> 27.8 µM	0.376	> 32.1 µM
CN(C)c1cccc2[nH]c(-c3[nH]ncc3Nc3ccnc(N)n3)nc12	10.2 µM	0.15 µM	0.324 µM	0.629 µM	< 0.0121 µM	1.09 µM	0.346 µM	0.0247 µM	1.13 µM	0.0175 µM	1.03 µM	0.0603 µM	1.22 µM	0.0258 µM	0.0295 µM	0.0318 µM	0.0273 µM	0.0201 µM	0.0152	< 0.0141 µM
